The values below are quoted from earlier work in patent US9173848B2, “Solid pharmaceutical fixed dose compositions comprising irbesartan and amlodipine, their preparation and their therapeutic application” (SANOFI, priority 2009, dated 2015).

For data set [1] the following is noted: in vivo.

Take `CCOC(=O)C1=C(COCCN)NC(C)=C(C(=O)OC)C1c1ccccc1Cl` (stereo not shown) [Amlodipine besylate]: the solubility in water result is listed as “slightly soluble”. Further, the absolute bioavailability in data set [1] is 64-90%.

Turning to `CCCCC1=NC2(CCCC2)C(=O)N1Cc1ccc(-c2ccccc2-c2nnn[nH]2)cc1` [Irbesartan, 2-n-butyl-4-spirocyclopentane-1-[(2′-(tetrazol-5-yl)biphenyl-4-yl)methyl]-2-imidazolin-5-one], the solubility in water entry was “insoluble”. For the same molecule, the “media of maximum solubility” value (parabolic pH solubility profile) is 0.1 N HCl and pH 7.5 phosphate buffer.
